# Measurements: patent publication US20110130380A1, “Heteroaryl Kinase Inhibitors” (priority 2009, published 2011)
# Target: Cdk9/cyclinT1 (Homo sapiens, UniProt P50750)
# Assay: Cdk9/cyclinT1 IMAP Protocol (fluorescence polarization kinase assay)
# Settings: Cdk9_cyclinT1_IC50, Table V; generated using one of the two Cdk9/cyclinT1 assays (IMAP or Alpha Screen), not stated which; ATP 6 uM
# Chain of Cdk9/cyclinT1 (P50750 whole entry): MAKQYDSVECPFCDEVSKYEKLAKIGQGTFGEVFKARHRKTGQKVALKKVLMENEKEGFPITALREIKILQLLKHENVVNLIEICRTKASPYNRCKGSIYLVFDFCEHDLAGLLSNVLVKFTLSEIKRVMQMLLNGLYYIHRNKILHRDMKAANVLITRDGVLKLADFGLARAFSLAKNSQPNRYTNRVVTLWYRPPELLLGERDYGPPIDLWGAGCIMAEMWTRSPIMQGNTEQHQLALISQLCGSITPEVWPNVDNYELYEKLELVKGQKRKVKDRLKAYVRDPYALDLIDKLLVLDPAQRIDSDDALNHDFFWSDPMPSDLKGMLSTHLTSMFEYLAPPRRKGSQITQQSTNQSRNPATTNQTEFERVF
# Chain of Cdk9/cyclinT1 (O60563 whole entry partner): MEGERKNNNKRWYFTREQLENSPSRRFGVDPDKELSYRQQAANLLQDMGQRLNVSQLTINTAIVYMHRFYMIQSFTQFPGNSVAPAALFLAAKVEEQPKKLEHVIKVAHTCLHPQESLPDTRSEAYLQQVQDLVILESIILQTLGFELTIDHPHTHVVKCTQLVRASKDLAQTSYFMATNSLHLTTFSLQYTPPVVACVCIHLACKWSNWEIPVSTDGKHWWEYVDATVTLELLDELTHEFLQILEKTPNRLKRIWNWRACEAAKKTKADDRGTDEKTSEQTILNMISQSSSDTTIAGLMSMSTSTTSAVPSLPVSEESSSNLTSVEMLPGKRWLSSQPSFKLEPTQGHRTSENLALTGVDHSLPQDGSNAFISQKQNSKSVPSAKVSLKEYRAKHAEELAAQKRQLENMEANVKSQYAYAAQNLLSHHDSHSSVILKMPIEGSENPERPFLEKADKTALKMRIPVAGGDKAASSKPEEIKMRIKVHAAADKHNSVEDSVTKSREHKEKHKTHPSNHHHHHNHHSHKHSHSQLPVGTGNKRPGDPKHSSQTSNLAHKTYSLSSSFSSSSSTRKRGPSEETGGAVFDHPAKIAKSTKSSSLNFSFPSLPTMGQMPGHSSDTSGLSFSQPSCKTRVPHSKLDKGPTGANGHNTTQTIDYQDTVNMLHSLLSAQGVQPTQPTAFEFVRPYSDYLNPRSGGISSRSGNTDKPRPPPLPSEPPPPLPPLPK
row,SMILES,IC50 [nM]
1,"O=C(Nc1cc(-c2cccc(NCC3CCOCC3)n2)c(Cl)cn1)[C@@H]1CCCN(CC(F)(F)F)C1 [Example 11, (R)-1-(2,2,2-Trifluoro-ethyl)-piperidine-3-carboxylic acid {5′-chloro-6-[(tetrahydro-pyran-4-ylmethyl)-amino]-[2,4′]bipyridinyl-2′-yl}-amide]",770
2,"O=C(Nc1cc(-c2cccc(NCC3CCOCC3)n2)c(Cl)cn1)[C@@H]1CCNC1 [Example 50, (R)-Pyrrolidine-3-carboxylic acid {5′-chloro-6-[(tetrahydro-pyran-4-ylmethyl)-amino]-[2,4′]bipyridinyl-2′-yl}-amide]",< 8
3,"O=C(Nc1cc(-c2nc(NCC3CCOCC3)ccc2Cl)c(Cl)cn1)C1CCCCNC1 (stereo not shown) [Example 194, Azepane-3-carboxylic acid {3,5′-dichloro-6-[(tetrahydro-pyran-4-ylmethyl)-amino]-[2,4′]bipyridinyl-2′-yl}-amide]",1
4,"C[C@@H]1CC(CNc2cccc(-c3cc(NC(=O)[C@@H]4CCNC4)ncc3Cl)n2)C[C@H](C)O1 (stereo partly drawn) [Example 170, (R)-Pyrrolidine-3-carboxylic acid {5′-chloro-6-[((2R,6S)-2,6-dimethyl-tetrahydro-pyran-4-ylmethyl)-amino]-[2,4′]bipyridinyl-2′-yl}-amide]",1
5,"CC1(C)CC(CNc2cccc(-c3cc(NC(=O)[C@@H]4CCCNC4)ncc3Cl)n2)CCO1 (stereo partly drawn) [Example 94, (R)-Piperidine-3-carboxylic acid {5′-chloro-6-[(2,2-dimethyl-tetrahydro-pyran-4-ylmethyl)-amino]-[2,4′]bipyridinyl-2′-yl}-amide]",< 8
6,"CC1(C)CCC(C(=O)Nc2cc(-c3cccc(NCC4CCOCC4)n3)c(Cl)cn2)CN1 (stereo not shown) [Example 206, 6,6-Dimethyl-piperidine-3-carboxylic acid {5′-chloro-6-[(tetrahydro-pyran-4-ylmethyl)-amino]-[2,4′]bipyridinyl-2′-yl}-amide]",1
7,"O=C1CCC(C(=O)Nc2cc(-c3cccc(NCC4CCOCC4)n3)c(Cl)cn2)CN1 (stereo not shown) [Example 61, 6-Oxo-piperidine-3-carboxylic acid {5′-chloro-6-[(tetrahydro-pyran-4-ylmethyl)-amino]-[2,4′]bipyridinyl-2′-yl}-amide]",< 8
8,"CCN1CCCC(C(=O)Nc2cc(-c3cccc(NCC4CCOCC4)n3)c(Cl)cn2)C1 (stereo not shown) [Example 9, 1-Ethyl-piperidine-3-carboxylic acid {5′-chloro-6-[(tetrahydro-pyran-4-ylmethyl)-amino]-[2,4′]bipyridinyl-2′-yl}-amide]",144
9,"CC[C@@H]1CC[C@@H](C(=O)Nc2cc(-c3ccc(F)c(NCC4CCOCC4)n3)ccn2)CN1 (racemic) [Example 251, (3R,6R)-/(3S,6S)-6-Ethyl-piperidine-3-carboxylic acid {5-fluoro-6-[(tetrahydro-pyran-4-ylmethyl)-amino]-[2,4′]bipyridinyl-2′-yl}-amide]",1
10,"CC1(C)COC(CNc2nc(-c3cc(NC(=O)[C@@H]4CCCNC4)ncc3Cl)ccc2F)CO1 (stereo partly drawn) [Example 255, (R)-Piperidine-3-carboxylic acid {5′-chloro-6-[(5,5-dimethyl-[1,4]dioxan-2-ylmethyl)-amino]-5-fluoro-[2,4′]bipyridinyl-2′-yl}-amide]",1
11,"O=C(Nc1cc(-c2cccc(NCC3CCOCC3)n2)c(Cl)cn1)[C@H]1CCNC1 [Example 73, (S)-Pyrrolidine-3-carboxylic acid {5′-chloro-6-[(tetrahydro-pyran-4-ylmethyl)-amino]-[2,4′]bipyridinyl-2′-yl}-amide]",13
12,"COC(=O)N1CCC[C@H](C(=O)Nc2cc(-c3nc(NCC4CCOC(C)(C)C4)ccc3Cl)c(Cl)cn2)C1 (stereo partly drawn) [Example 140, (S)-3-{3,5′-Dichloro-6-[(2,2-dimethyl-tetrahydro-pyran-4-ylmethyl)-amino]-[2,4′]bipyridinyl-2′-ylcarbamoyl}-piperidine-1-carboxylic acid methyl ester]",< 8
13,"CC(C)O[C@H]1CNC[C@@H]1C(=O)Nc1cc(-c2cccc(NCC3(C)CCOCC3)n2)c(Cl)cn1 [Example 249, (3S,4R)-4-Isopropoxy-pyrrolidine-3-carboxylic acid {5′-chloro-6-[(4-methyl-tetrahydro-pyran-4-ylmethyl)-amino]-[2,4′]bipyridinyl-2′-yl}-amide]",9
14,"CC[C@@H]1CC[C@@H](C(=O)Nc2cc(-c3cccc(NCC4CCOCC4)n3)c(Cl)cn2)CN1 (racemic) [Example 229, (3R,6R)-/(3S,6S)-6-Ethyl-piperidine-3-carboxylic acid {5′-chloro-6-[(tetrahydro-pyran-4-ylmethyl)-amino]-[2,4′]bipyridinyl-2′-yl}-amide]",1
15,"CC(C)(C)OC(=O)N1CCC[C@@H](C(=O)Nc2cc(-c3cccc(NCC4CCOCC4)n3)c(Cl)cn2)C1 [Example 6, (R)-3-{5′-Chloro-6-[(tetrahydro-pyran-4-ylmethyl)-amino]-[2,4′]bipyridinyl-2′-ylcarbamoyl}-piperidine-1-carboxylic acid tert-butyl ester]",92
16,"CC[C@H]1CC[C@H](C(=O)Nc2cc(-c3cccc(NCC4CCOCC4)n3)c(Cl)cn2)CN1 (single isomer, unassigned) [Example 241]",9
17,"N[C@H]1CC[C@@H](C(=O)Nc2cc(-c3cccc(NCC4CCOCC4)n3)c(Cl)cn2)C1 [Example 48, (1R,3S)-3-Amino-cyclopentanecarboxylic acid {5′-chloro-6-[(tetrahydro-pyran-4-ylmethyl)-amino]-[2,4′]bipyridinyl-2′-yl}-amide]",< 8
18,"O=C(Nc1cc(-c2cccc(NCc3ccc(F)cc3)n2)c(Cl)cn1)[C@@H]1CCCNC1 [Example 53, (R)-Piperidine-3-carboxylic acid [5′-chloro-6-(4-fluoro-benzylamino)-[2,4′]bipyridinyl-2′-yl]-amide]",< 8
19,"O=C(Nc1cc(-c2cccc(NCC3CCOCC3)n2)c(Cl)cn1)[C@@H]1CNC[C@H](F)C1 [Example 176, (3S,5R)-5-Fluoro-piperidine-3-carboxylic acid {5′-chloro-6-[(tetrahydro-pyran-4-ylmethyl)-amino]-[2,4′]bipyridinyl-2′-yl}-amide]",23
20,"O=C(Nc1cc(-c2cccc(NCC3CCOCC3)n2)c(Cl)cn1)[C@H]1CNCCO1 [Example 96, (R)-Morpholine-2-carboxylic acid {5′-chloro-6-[(tetrahydro-pyran-4-ylmethyl)-amino]-[2,4′]bipyridinyl-2′-yl}-amide]",5
21,"O=C(Nc1cc(-c2cccc(NCC3CCOCC3)n2)c(Cl)cn1)c1cccnc1 [Example 71, N-{5′-Chloro-6-[(tetrahydro-pyran-4-ylmethyl)-amino]-[2,4′]bipyridinyl-2′-yl}-nicotinamide]",56
22,"N[C@H]1CC[C@@H](C(=O)Nc2cc(-c3nc(NCC4CCOCC4)ccc3Cl)c(Cl)cn2)C1 [Example 100, (1R,3S)-3-Amino-cyclopentanecarboxylic acid {3,5′-dichloro-6-[(tetrahydro-pyran-4-ylmethyl)-amino]-[2,4′]bipyridinyl-2′-yl}-amide]",< 8
23,"C[C@@H]1CC[C@@H](C(=O)Nc2cc(-c3cccc(NC[C@@H]4CCOC(C)(C)C4)n3)c(Cl)cn2)CN1 (single isomer, unassigned) [Example 242]",1
24,"COC(=O)N[C@H]1CC[C@@H](C(=O)Nc2cc(-c3nc(NCC4CCOCC4)ccc3Cl)c(Cl)cn2)C1 [Example 107, ((lS,3R)-3-{3,5′-Dichloro-6-[(tetrahydro-pyran-4-ylmethyl)-amino]-[2,4′]bipyridinyl-2′-ylcarbamoyl}-cyclopentyl)-carbamic acid methyl ester]",< 8
25,"O=C(Nc1cc(-c2cccc(NCc3cccnc3)n2)c(Cl)cn1)[C@@H]1CCCNC1 [Example 40, (R)-Piperidine-3-carboxylic acid {5′-chloro-6-[(pyridin-3-ylmethyl)-amino]-[2,4′]bipyridinyl-2′-yl}-amide]",< 8
26,"O=C(Nc1cc(-c2cccc(NCCN3CCCC3=O)n2)c(Cl)cn1)[C@@H]1CCCNC1 [Example 32, (R)-Piperidine-3-carboxylic acid {5′-chloro-6-[2-(2-oxo-pyrrolidin-1-yl)-ethylamino]-[2,4′]bipyridinyl-2′-yl}-amide]",19
27,"O=C(Nc1cc(-c2nc(NCC3CCOCC3)ccc2Cl)c(Cl)cn1)[C@H]1CCCNC1 [Example 98, (S)-Piperidine-3-carboxylic acid {3,5′-dichloro-6-[(tetrahydro-pyran-4-ylmethyl)-amino]-[2,4′]bipyridinyl-2′-yl}-amide]",14
28,"O=C(Nc1cc(-c2cccc(NCC3CCOCC3)n2)c(Cl)cn1)C1CCNCC1 [Example 7, Piperidine-4-carboxylic acid {5′-chloro-6-[(tetrahydro-pyran-4-ylmethyl)-amino]-[2,4′]bipyridinyl-2′-yl}-amide]",14
29,"CC(=O)NCCNc1cccc(-c2cc(NC(=O)[C@@H]3CCCNC3)ncc2Cl)n1 [Example 37, (R)-Piperidine-3-carboxylic acid [6-(2-acetylamino-ethylamino)-5′-chloro-[2,4′]bipyridinyl-2′-yl]-amide]",50

# Same assay, conditions: Cdk9_cyclinT1_IC50, generated using one of the two Cdk9/cyclinT1 assays (IMAP or Alpha Screen), not specified per value; ATP 6 uM
row,SMILES,IC50 [nM]
1,"Cc1ccncc1-c1cc(NC(=O)[C@@H]2CCCNC2)ncc1Cl [Example 309, (R)-Piperidine-3-carboxylic acid (5′-chloro-4-methyl-[3,4′]bipyridinyl-2′-yl)-amide]",627

# Test system: neointima formation
# Assay: not given
# Settings: rats; cited from earlier work
row,SMILES,inhibition of neointima formation
1,COc1ccc(CNc2nc(N(CCO)CCO)nc3c2ncn3C(C)C)cc1 [CVT-313],greater than 80%
